# Measurements published in article PMC8268887, “Peptide/β-Peptoid Hybrids with Ultrashort PEG-Like Moieties: Effects on Hydrophobicity, Antibacterial Activity and Hemolytic Properties” (International Journal of Molecular Sciences, 2021).
# Like-named read-outs stand apart in the source and are kept apart here.
# Assays:
# [1] = test system: E. faecalis ATCC 29212; type: cell-based; settings: ATCC 29212, 20 h
# Experimental: (§1) MIC values of the peptidomimetics were evaluated by using the modified Hancock lab protocol in non-binding polystyrene microtiter plates. Bacterial suspensions of ~5 × 10^5 CFU/mL in Mueller-Hinton broth (Difco, Sparks, MD, USA) were prepared with Mg^2+ and Ca^2+ concentrations of 4 mg/L each. The compounds were dissolved in H2O and diluted in 0.01% acetic acid, 0.2% BSA (final concentration). Aliquots (11 µL) of test compounds were then transferred to wells containing bacterial suspensions (100 µL). Low-binding sterile tubes and tips (Axygen, Union City, CA, USA) were used for preparation and transfer of the solutions of the compounds. Following incubation for 20 h of the covered plates at 35 °C (±2 °C) with circular shaking at 180 rpm, the MICs were read.
# [2] = test system: K. pneumoniae ATCC 13883; type: cell-based; settings: ATCC 13883, 20 h
# Experimental: as §1
# [3] = Hydrophobicity by retention in analytical RP-HPLC (% MeCN at peak elution); type: physicochemical; settings: for % MeCN at Elution, Aeris Peptide: Phenomenex Aeris Peptide XB-C18 column; for % MeCN at Elution, Aeris Peptide / % MeCN at Elution, Luna Omega / % MeCN at Elution, Supelco Discovery: gradient 0→60% B during 15 min; for % MeCN at Elution, Luna: Phenomenex Luna C18(2) column, RP-HPLC gradient 0→60% B during 15 min, relative hydrophobicity; for % MeCN at Elution, Luna Omega: Phenomenex Luna Omega Polar C18 column; for % MeCN at Elution, Supelco Discovery: Supelco Discovery BIO Wide pore C18 column
# Experimental: For each peptide/β-peptoid hybrid oligomer, the retention time in RP-HPLC was measured on four different columns (details shown in Table 2): Phenomenex Luna C18(2) column (recommended for hydrophobic compounds [49]), Phenomenex Luna Omega Polar C18 column (recommended for both very polar and non-polar compounds [50]) as well as Phenomenex Aeris Peptide XB-C18 [51] and Sigma-Aldrich Supelco Discovery BIO Wide pore C18 [52] columns, which both are recommended for analysis of peptides. The retention times of the compounds on each column were used to calculate the acetonitrile concentration at peak elution (denoted merely as % MeCN; Table 1). As expected, the % MeCN for each compound varied somewhat between the four columns.
# Starting materials and solvents were acquired from commercial suppliers (Iris Biotech, Markredwitz, Germany; Fluorochem, Hadfield, UK; and Merck, Darmstadt, Germany) and used without further purification. Water used for analytical and preparative high-performance liquid chromatography (HPLC) was filtered through a 0.22-μm capsule filter using an Evoqua LaboStar Pro TWF UV system. Purity and retention time of each peptidomimetic were determined by analytical HPLC by using a Phenomenex Luna Omega Polar C18 column (150 × 4.6 mm; particle size: 3 μm; pore size: 100 Å) on a Shimadzu Prominence and Shimadzu Nexera system using an aqueous acetonitrile (MeCN, VWR, Søborg, Denmark) gradient with 0.1% trifluoroacetic acid (TFA, Iris Biotech, Markredwitz, Germany) added (eluent A: 5:95 MeCN–H2O + 0.1% TFA, eluent B: 95:5 MeCN–H2O + 0.1% TFA); a flow rate of 0.8 mL/min was used. For elution of peptidomimetics, a linear gradient of 0% to 60% B during 15 min was used with UV detection at λ = 220 nm. […] Retention time of each peptidomimetic was also determined by using a Phenomenex Luna C18(2) column (150 × 4.6 mm; particle size: 3 μm; pore size: 100 Å), a Phenomenex Aeris Peptide XB-C18 column (150 × 4.6 mm; particle size: 3.6 μm; pore size: 100 Å), and a Sigma-Aldrich Supelco Discovery BIO Wide pore C18 column (150 × 4.6 mm, particle size: 3 µm; pore size: 300 Å). For each peptidomimetic, the percentage of MeCN at peak elution was calculated from the retention time by using the following formula:(1) %MeCN =0.95 (0.6Rt/15 min)+0.05 (1−0.6Rt/15 min)
# [4] = test system: A. baumannii NMI 3658/17; type: cell-based, Acinetobacter baumannii; settings: NMI 3658/17, 20 h
# Experimental: as §1
# [5] = test system: S. aureus ATCC 29213; type: cell-based, Staphylococcus aureus; settings: ATCC 29213, 20 h
# Experimental: as §1
# [6] = test system: P. aeruginosa PAO1; type: cell-based, Pseudomonas aeruginosa
# Experimental: as §1
# [7] = test system: P. aeruginosa NMI 7197/19; type: cell-based, Pseudomonas aeruginosa; settings: NMI 7197/19, 20 h
# Experimental: as §1
# [8] = test system: E. coli ATCC 25922; type: cell-based, Escherichia coli; settings: ATCC 25922, 20 h
# Experimental: as §1
# [9] = test system: E. coli NMI 3898/15; type: cell-based, Escherichia coli; settings: NMI 3898/15, 20 h
# Experimental: as §1
# [10] = test system: E. coli NMI 3371/16; type: cell-based, Escherichia coli; settings: NMI 3371/16, 20 h
# Experimental: as §1
# [11] = Determination of hemolytic activity; type: cell-based; settings: red blood cell suspension in PBS buffer, human red blood cells at 400 µg/mL, 37 °C
# Experimental: The lysis of human red blood cells was measured almost as previously described, albeit with modifications. In brief, a suspension of freshly drawn human red blood cells (hRBCs) was washed three times with PBS buffer and centrifuged two times for 5 min at 2500 rpm. A two-fold serial dilution of compounds in PBS buffer was prepared. Plates (conical-bottomed 96-well plates) with three replicate wells per dilution, each containing 1% red blood cell suspension, were prepared and dosed with the test compound to achieve a final concentration of 400 μg/mL in a total volume of 100 μL. The plates were incubated (37 °C) for 60 min with mild agitation, and then the cells were pelleted by centrifugation at 1500 rpm for 5 min. The supernatants (50 μL) were then transferred to a fresh 96-well plate, and the concentration of hemoglobin was detected by measuring the OD at 405 nm. The OD of cells incubated with 1% SDS defined 100% hemolysis, while the OD of cells incubated with PBS buffer defined 0% hemolysis. The concentration tested was 400 μg/mL (only average values are stated in Table 5). The percent hemolysis was calculated by using the formula:(3) Hemolysis (%)=100×[Asample−Aneg.control/Apos.control−Aneg.control]
# [12] = test system: A. baumannii ATCC 19606; type: cell-based, Acinetobacter baumannii; settings: ATCC 19606, 20 h
# Experimental: as §1
compound,measurement,setting,value
"NCCCC[C@H](NC(=O)CCN(Cc1ccc(F)cc1)C(=O)[C@H](CCCCN)NC(=O)CCN(Cc1ccc(F)cc1)C(=O)[C@H](CCCCN)NC(=O)CCN(Cc1ccc(F)cc1)C(=O)[C@H](CCCCN)NC(=O)CCN(Cc1ccc(F)cc1)C(=O)[C@H](CCCCN)NC(=O)CCN(Cc1ccc(F)cc1)C(=O)[C@H](CCCCN)NC(=O)CCOCCOCCOCCOCCN)C(=O)N(CCC(=O)NCCOCCOCCOCCOCCC(N)=O)Cc1ccc(F)cc1 [Compound 5, H-sPEG4-[X]6-sPEG4-NH2]","MIC, EF",[1],>64 µg/mL
same,"MIC, KP",[2],>64 µg/mL
same,"% MeCN at Elution, Aeris Peptide",[3],40.0 % MeCN
same,"% MeCN at Elution, Luna",[3],42.2 % MeCN
same,"% MeCN at Elution, Luna Omega",[3],43.2 % MeCN
same,"% MeCN at Elution, Supelco Discovery",[3],42.5 % MeCN
same,"MIC, A. baumannii NMI 3658/17",[4],16 µg/mL
same,"MIC, SA",[5],>64 µg/mL
same,"MIC, PA",[6]; P. aeruginosa PAO1 (WT),> 64 µg/mL
same,"MIC, P. aeruginosa NMI 7197/19",[7],>64 µg/mL
same,"MIC, EC",[8],16 µg/mL
same,"MIC, E. coli NMI 3898/15",[9],32 µg/mL
same,"MIC, E. coli NMI 3371/16",[10],8 to 16 µg/mL
same,hemolysis at 60 min,[11],6.4%
"NCCCC[C@H](NC(=O)CCN(Cc1ccc(F)cc1)C(=O)[C@H](CCCCN)NC(=O)CCN(Cc1ccc(F)cc1)C(=O)[C@H](CCCCN)NC(=O)CCN(Cc1ccc(F)cc1)C(=O)[C@H](CCCCN)NC(=O)CCN(Cc1ccc(F)cc1)C(=O)[C@H](CCCCN)NC(=O)CCN(Cc1ccc(F)cc1)C(=O)[C@H](CCCCN)NC(=O)COCCOCCN)C(=O)N(CCC(N)=O)Cc1ccc(F)cc1 [Compound 2, H-sPEG2-[X]6-NH2]","MIC, EF",[1],>64 µg/mL
same,"MIC, KP",[2],>64 µg/mL
same,"% MeCN at Elution, Aeris Peptide",[3],39.4 % MeCN
same,"% MeCN at Elution, Luna",[3],41.4 % MeCN
same,"% MeCN at Elution, Luna Omega",[3],41.9 % MeCN
same,"% MeCN at Elution, Supelco Discovery",[3],41.5 % MeCN
same,"MIC, AB",[12],4 µg/mL
same,"MIC, A. baumannii NMI 3658/17",[4],4 µg/mL
same,"MIC, SA",[5],32 to 64 µg/mL
same,"MIC, PA","[6]; PAO1, 20 h",32 µg/mL
same,"MIC, P. aeruginosa NMI 7197/19",[7],>64 µg/mL
same,"MIC, EC",[8],8 µg/mL
same,"MIC, E. coli NMI 3898/15",[9],16 µg/mL
same,"MIC, E. coli NMI 3371/16",[10],8 µg/mL
same,hemolysis at 60 min,[11],2.4%
"NCCCC[C@H](NC(=O)CCN(Cc1ccc(F)cc1)C(=O)[C@H](CCCCN)NC(=O)CCN(Cc1ccc(F)cc1)C(=O)[C@H](CCCCN)NC(=O)CCN(Cc1ccc(F)cc1)C(=O)[C@H](CCCCN)NC(=O)CCN(Cc1ccc(F)cc1)C(=O)[C@H](CCCCN)NC(=O)CCN(Cc1ccc(F)cc1)C(=O)[C@H](CCCCN)NC(=O)CCOCCOCCOCCOCCN)C(=O)N(CCC(N)=O)Cc1ccc(F)cc1 [Compound 3, H-sPEG4-[X]6-NH2]","MIC, EF",[1],>64 µg/mL
same,"MIC, KP",[2],>64 µg/mL
same,"% MeCN at Elution, Aeris Peptide",[3],39.6 % MeCN
same,"% MeCN at Elution, Luna",[3],41.9 % MeCN
same,"% MeCN at Elution, Luna Omega",[3],42.4 % MeCN
same,"% MeCN at Elution, Supelco Discovery",[3],42.6 % MeCN
same,"MIC, AB",[12],4 to 8 µg/mL
same,"MIC, A. baumannii NMI 3658/17",[4],4 to 8 µg/mL
same,"MIC, PA","[6]; PAO1, 20 h",32 to 64 µg/mL
same,"MIC, P. aeruginosa NMI 7197/19",[7],>64 µg/mL
same,"MIC, EC",[8],8 µg/mL
same,"MIC, E. coli NMI 3898/15",[9],16 µg/mL
same,"MIC, E. coli NMI 3371/16",[10],8 µg/mL
same,hemolysis at 60 min,[11],8.1%
"NCCCC[C@H](NC(=O)CCN(Cc1ccc(F)cc1)C(=O)[C@H](CCCCN)NC(=O)CCN(Cc1ccc(F)cc1)C(=O)[C@H](CCCCN)NC(=O)CCN(Cc1ccc(F)cc1)C(=O)[C@H](CCCCN)NC(=O)CCN(Cc1ccc(F)cc1)C(=O)[C@H](CCCCN)NC(=O)CCN(Cc1ccc(F)cc1)C(=O)[C@H](CCCCN)NC(=O)COCCOCCN)C(=O)N(CCC(=O)NCCOCCOCC(N)=O)Cc1ccc(F)cc1 [Compound 4, H-sPEG2-[X]6-sPEG2-NH2]","MIC, EF",[1],>64 µg/mL
same,"MIC, KP",[2],>64 µg/mL
same,"% MeCN at Elution, Aeris Peptide",[3],39.2 % MeCN
same,"% MeCN at Elution, Luna",[3],41.3 % MeCN
same,"% MeCN at Elution, Luna Omega",[3],42.1 % MeCN
same,"% MeCN at Elution, Supelco Discovery",[3],41.4 % MeCN
same,"MIC, AB",[12],4 µg/mL
same,"MIC, A. baumannii NMI 3658/17",[4],4 to 8 µg/mL
same,"MIC, SA",[5],>64 µg/mL
same,"MIC, PA","[6]; PAO1, 20 h",16 µg/mL
same,"MIC, P. aeruginosa NMI 7197/19",[7],>64 µg/mL
same,"MIC, EC",[8],8 to 16 µg/mL
same,"MIC, E. coli NMI 3898/15",[9],16 to 32 µg/mL
same,"MIC, E. coli NMI 3371/16",[10],8 to 16 µg/mL
same,hemolysis at 60 min,[11],5.4%
